We go through 19 compounds from US9365522B2, “Pyrazole amide derivative” (AMGEN INC., priority 2015, dated 2016).

The structures appear in SMILES notation.

This assay deals with T1, human RORγ-LBD (Homo sapiens, UniProt P51449).
T1 construct: made in house; host or cells: E. coli (BL-21)
T1 sequence (P51449 262-518): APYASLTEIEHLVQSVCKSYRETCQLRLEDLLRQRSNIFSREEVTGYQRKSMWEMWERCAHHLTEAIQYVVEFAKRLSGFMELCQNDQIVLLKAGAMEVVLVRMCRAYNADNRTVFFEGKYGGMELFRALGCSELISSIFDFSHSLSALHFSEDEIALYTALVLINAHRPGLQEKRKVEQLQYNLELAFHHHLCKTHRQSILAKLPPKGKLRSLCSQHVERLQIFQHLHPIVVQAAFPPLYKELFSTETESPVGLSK
The assay is described as follows: ROR gamma coactivator peptide recruitment Alphascreen assay (RORγ-LBD binding to GRIP1 coactivator peptide). It is filed as biochemical. Particulars: 5 nM human RORγ-LBD, 30 nM 7-β-hydroxycholesterol, 50 nM biotinylated GRIP1 coactivator peptide, overnight incubation at room temperature; read-out: result (pIC50, RORγ coactivator peptide recruitment Alphascreen assay) (converted). Put shortly:
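His/Flag-tagged human RORγ-LBD (aa 262-518, E. coli-expressed, 5 nM) with agonist 7-β-hydroxycholesterol (30 nM) and biotinylated GRIP1 LXXLL peptide (50 nM) in HEPES pH 7.4 buffer, 2.5% DMSO. Compound 1-in-2 dilutions; Alphascreen bead signal read after overnight incubation at room temperature; pIC50 calculated.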
On to `CC1(C)CC[C@H]1N(CC(=O)c1c(Cl)cncc1Cl)C(=O)c1cnn([C@H]2CC[C@](C)(C(=O)O)CC2)c1C(F)(F)F` [Example 616, trans-4-(4-((2-(3,5-dichloro-4-pyridinyl)-2-oxoethyl)((1R)-2,2-dimethylcyclobutyl)carbamoyl)-5-(trifluoromethyl)-1H-pyrazol-1-yl)-1-methylcyclohexanecarboxylic acid], for which the IC50 is 33.9 nM.
Consider `CC1(C)CC[C@@H]1N(CC(=O)c1c(Cl)cncc1Cl)C(=O)c1cnn([C@H]2CC[C@](C)(C(=O)O)CC2)c1C(F)(F)F` [Example 617, trans-4-(4-((2-(3,5-dichloro-4-pyridinyl)-2-oxoethyl)((1S)-2,2-dimethylcyclobutyl)carbamoyl)-5-(trifluoromethyl)-1H-pyrazol-1-yl)-1-methylcyclohexanecarboxylic acid], for which the IC50 was 117 nM.
`C=CCC1(CC=C)C[C@H](Cc2c(Cl)cncc2Cl)N(C(=O)c2cnn([C@H]3CC[C@](C)(C(=O)O)CC3)c2C(F)(F)F)C1` [Example 618, trans-4-(4-(((2R)-2-((3,5-dichloro-4-pyridinyl)methyl)-4,4-di(2-propen-1-yl)-1-pyrrolidinyl)carbonyl)-5-(trifluoromethyl)-1H-pyrazol-1-yl)-1-methylcyclohexanecarboxylic acid]: the IC50 was 10.5 nM.
Under `CC1(C)CC[C@H]1N(CC(=O)c1c(Cl)cccc1Cl)C(=O)c1cnn([C@H]2CC[C@](C)(C(=O)O)CC2)c1C(F)(F)F` [Example 619] stands 7.76 nM; under `CC1(C)CC[C@@H]1N(CC(=O)c1c(Cl)cccc1Cl)C(=O)c1cnn([C@H]2CC[C@](C)(C(=O)O)CC2)c1C(F)(F)F` [Example 620], 38.9 nM.
Under `O=C(c1cnn([C@H]2CC[C@@H](C(=O)O)CC2)c1C(F)(F)F)N(CCc1c(Cl)cncc1Cl)[C@@H]1CCC12CCC2` [Example 621, cis-4-(4-((2-(3,5-dichloro-4-pyridinyl)ethyl)((1R)-spiro[3.3]hept-1-yl)carbamoyl)-5-(trifluoromethyl)-1H-pyrazol-1-yl)cyclohexanecarboxylic acid] stands 302 nM; under `CC(C)(C#N)CCN(CC(=O)c1c(Cl)cccc1Cl)C(=O)c1cnn([C@H]2CC[C@](C)(C(=O)O)CC2)c1C(F)(F)F` [Example 622, trans-4-(4-((3-cyano-3-methylbutyl)(2-(2,6-dichlorophenyl)-2-oxoethyl)carbamoyl)-5-(trifluoromethyl)-1H-pyrazol-1-yl)-1-methylcyclohexanecarboxylic acid], 229 nM; under `O=C(CN(C(=O)c1cnn([C@H]2CC[C@@H](C(=O)O)CC2)c1C(F)(F)F)[C@H]1CC12CCCC2)c1c(Cl)cccc1Cl` [Example 624, cis-4-(4-((2-(2,6-dichlorophenyl)-2-oxoethyl)((1S)-spiro[2.4]hept-1-yl)carbamoyl)-5-(trifluoromethyl)-1H-pyrazol-1-yl)cyclohexanecarboxylic acid], 102 nM.
Consider `C[C@]1(C(=O)O)CC[C@H](n2ncc(C(=O)N(CC(=O)c3c(Cl)cccc3Cl)[C@H]3CCC34CCCC4)c2C(F)(F)F)CC1` [Example 626], for which the IC50 was 2.82 nM.
Next, `CC1(C)C[C@H](CN(CC(=O)c2c(Cl)cccc2Cl)C(=O)c2cnn([C@H]3CC[C@](C)(C(=O)O)CC3)c2C(F)(F)F)O1` [Example 628, trans-4-(4-((2-(2,6-dichlorophenyl)-2-oxoethyl)(((2R)-4,4-dimethyl-2-oxetanyl)methyl)carbamoyl)-5-(trifluoromethyl)-1H-pyrazol-1-yl)-1-methylcyclohexanecarboxylic acid]: 26.9 nM; `CC1(C)C[C@@H](CN(CC(=O)c2c(Cl)cccc2Cl)C(=O)c2cnn([C@H]3CC[C@](C)(C(=O)O)CC3)c2C(F)(F)F)O1` [Example 629, trans-4-(4-((2-(2,6-dichlorophenyl)-2-oxoethyl)(((2S)-4,4-dimethyl-2-oxetanyl)methyl)carbamoyl)-5-(trifluoromethyl)-1H-pyrazol-1-yl)-1-methylcyclohexanecarboxylic acid]: 45.7 nM.
As for `Cc1cc(Cl)c(C(=O)CN(CC2(F)CC2)C(=O)c2cnn([C@H]3CC[C@](C)(C(=O)O)CC3)c2C(F)(F)F)c(Cl)c1` [Example 630, trans-4-(4-((2-(2,6-dichloro-4-methylphenyl)-2-oxoethyl)((1-fluorocyclopropyl)methyl)carbamoyl)-5-(trifluoromethyl)-1H-pyrazol-1-yl)-1-methylcyclohexanecarboxylic acid], the IC50 is 3.98 nM.
In the case of `Cc1cc(Cl)c(C(=O)CN(CC2(F)CCCC2)C(=O)c2cnn([C@H]3CC[C@@H](C(=O)O)CC3)c2C(F)(F)F)c(Cl)c1` [Example 631, cis-4-(4-((2-(2,6-dichloro-4-methylphenyl)-2-oxoethyl)((1-fluorocyclopentyl)methyl)carbamoyl)-5-(trifluoromethyl)-1H-pyrazol-1-yl)cyclohexanecarboxylic acid], the IC50 is 10 nM.
In the case of `C[C@]1(C(=O)O)CC[C@H](n2ncc(C(=O)N(CC(=O)c3c(Cl)cccc3Cl)C3CC4(CCC4)C3)c2C(F)(F)F)CC1` [Example 632, trans-4-(4-((2-(2,6-dichlorophenyl)-2-oxoethyl)(spiro[3.3]hept-2-yl)carbamoyl)-5-(trifluoromethyl)-1H-pyrazol-1-yl)-1-methylcyclohexanecarboxylic acid], the IC50 was 3.98 nM.
As to `C[C@]1(C(=O)O)CC[C@H](n2ncc(C(=O)N(CC(=O)c3c(Cl)cncc3Cl)C3CC4(CCC4)C3)c2C(F)(F)F)CC1` [Example 633, trans-4-(4-((2-(3,5-dichloro-4-pyridinyl)-2-oxoethyl)(spiro[3.3]hept-2-yl)carbamoyl)-5-(trifluoromethyl)-1H-pyrazol-1-yl)-1-methylcyclohexanecarboxylic acid], the IC50 is 8.13 nM.
Next, `CC1(C)CC[C@H]1N(CC(=O)c1c(Cl)cncc1Cl)C(=O)c1cnn([C@H]2CC[C@@H](C(=O)O)CC2)c1C(F)(F)F` [Example 634, cis-4-(4-((2-(3,5-dichloro-4-pyridinyl)-2-oxoethyl)((1R)-2,2-dimethylcyclobutyl)carbamoyl)-5-(trifluoromethyl)-1H-pyrazol-1-yl)cyclohexanecarboxylic acid]: 871 nM; `CC1(C)CC[C@@H]1N(CC(=O)c1c(Cl)cncc1Cl)C(=O)c1cnn([C@H]2CC[C@@H](C(=O)O)CC2)c1C(F)(F)F` [Example 635, cis-4-(4-((2-(3,5-dichloro-4-pyridinyl)-2-oxoethyl)((1S)-2,2-dimethylcyclobutyl)carbamoyl)-5-(trifluoromethyl)-1H-pyrazol-1-yl)cyclohexanecarboxylic acid]: 324 nM.
Next, `CC1(C)CC[C@H]1N(CC(=O)c1c(Cl)cccc1Cl)C(=O)c1cnn([C@H]2CC[C@@H](C(=O)O)CC2)c1C(F)(F)F` [Example 636, cis-4-(4-((2-(2,6-dichlorophenyl)-2-oxoethyl)((1R)-2,2-dimethylcyclobutyl)carbamoyl)-5-(trifluoromethyl)-1H-pyrazol-1-yl)cyclohexanecarboxylic acid]: 132 nM.
Under `CC1(C)CC[C@@H]1N(CC(=O)c1c(Cl)cccc1Cl)C(=O)c1cnn([C@H]2CC[C@@H](C(=O)O)CC2)c1C(F)(F)F` [Example 637, cis-4-(4-((2-(2,6-dichlorophenyl)-2-oxoethyl)((1S)-2,2-dimethylcyclobutyl)carbamoyl)-5-(trifluoromethyl)-1H-pyrazol-1-yl)cyclohexanecarboxylic acid] stands 724 nM.
